# According to the SangsterLogP compilation:
row,SMILES,logP
1,CC1=C(C(=O)O)N2C(=O)C(NC(=O)Cc3ccco3)C2SC1 (centres undefined),-0.13
2,CC1=C(C(=O)O)N2C(=O)C(NC(=O)Cc3ccc(-c4ccc(Cl)cc4)o3)C2SC1 (centres undefined),2.38
3,CC1=C(C(=O)O)N2C(=O)C(NC(=O)Cc3ccc(-c4ccccc4)o3)C2SC1 (centres undefined),1.66
4,CC(=O)OCC1=C(C(=O)O)N2C(=O)C(NC(=O)Cc3ccc([N+](=O)[O-])o3)C2SC1 (centres undefined),0.72
5,CC(=O)OCC1=C(C(=O)O)N2C(=O)C(NC(=O)Cc3ccco3)C2SC1 (centres undefined),0.09

# More lines, now with the values ahead:
row,logP,SMILES
1,2.76,CC(=O)OCC1=C(C(=O)O)N2C(=O)C(NC(=O)Cc3ccc(-c4ccc(Cl)cc4)o3)C2SC1 (centres undefined)
2,3.6,CC1=C(C(=O)O)N2C(=O)C(NC(=O)Cc3ccc(-c4c(Cl)cccc4Cl)o3)C2SC1 (centres undefined)
3,2.78,CC(=O)OCC1=C(C(=O)O)N2C(=O)C(NC(=O)Cc3ccc(-c4c(Cl)cccc4Cl)o3)C2SC1 (centres undefined)
4,2.42,CC(=O)OCC1=C(C(=O)O)N2C(=O)C(NC(=O)Cc3ccc(-c4ccccc4Cl)o3)C2SC1 (centres undefined)
